For six compounds, % of control and % of inhibition results are on record in ChEMBL document CHEMBL5465560, “Selectivity Literature for EUbOPEN Chemogenomic Library” (2024).

Test [1] addresses Prostacyclin receptor (Homo sapiens) (UniProt P43119). The test can be described thus: Selectivity interaction (Eurofins CEREP Diversity Profile (receptors and ion channels)) EUB0000279b PTGIR. Conditions: at 10 µM.
Test [2] concerns the target T1, Ephrin type-A receptor 8 (Homo sapiens) (UniProt P29322).
T1 sequence (whole entry): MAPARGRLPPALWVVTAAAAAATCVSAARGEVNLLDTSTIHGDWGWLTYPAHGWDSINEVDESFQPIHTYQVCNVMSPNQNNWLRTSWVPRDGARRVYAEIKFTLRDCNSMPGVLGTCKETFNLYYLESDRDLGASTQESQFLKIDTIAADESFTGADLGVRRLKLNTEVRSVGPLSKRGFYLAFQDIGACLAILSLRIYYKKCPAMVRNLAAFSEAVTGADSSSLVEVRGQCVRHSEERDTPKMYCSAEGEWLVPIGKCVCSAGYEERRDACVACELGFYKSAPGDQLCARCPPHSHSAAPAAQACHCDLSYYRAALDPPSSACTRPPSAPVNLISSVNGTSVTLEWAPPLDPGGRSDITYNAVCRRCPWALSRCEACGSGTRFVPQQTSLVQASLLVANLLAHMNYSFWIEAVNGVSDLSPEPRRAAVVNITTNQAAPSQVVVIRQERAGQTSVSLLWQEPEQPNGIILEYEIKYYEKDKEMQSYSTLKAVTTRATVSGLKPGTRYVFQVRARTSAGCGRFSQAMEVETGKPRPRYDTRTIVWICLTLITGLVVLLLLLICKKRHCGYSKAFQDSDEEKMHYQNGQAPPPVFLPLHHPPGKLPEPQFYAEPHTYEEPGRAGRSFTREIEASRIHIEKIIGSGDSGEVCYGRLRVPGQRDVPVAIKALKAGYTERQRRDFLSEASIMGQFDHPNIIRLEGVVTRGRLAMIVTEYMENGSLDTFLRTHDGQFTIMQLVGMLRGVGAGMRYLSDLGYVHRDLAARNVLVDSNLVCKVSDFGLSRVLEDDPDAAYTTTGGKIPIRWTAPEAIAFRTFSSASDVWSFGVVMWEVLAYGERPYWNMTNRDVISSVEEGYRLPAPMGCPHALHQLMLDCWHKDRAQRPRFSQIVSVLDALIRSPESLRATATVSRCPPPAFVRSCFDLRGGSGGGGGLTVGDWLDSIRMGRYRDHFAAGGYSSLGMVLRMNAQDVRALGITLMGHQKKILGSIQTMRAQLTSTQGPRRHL
The note with it: at 10 µM.

Test [3] concerns the target T2, Serine/threonine-protein kinase Nek3 (Homo sapiens) (UniProt P51956).
T2 sequence (whole entry): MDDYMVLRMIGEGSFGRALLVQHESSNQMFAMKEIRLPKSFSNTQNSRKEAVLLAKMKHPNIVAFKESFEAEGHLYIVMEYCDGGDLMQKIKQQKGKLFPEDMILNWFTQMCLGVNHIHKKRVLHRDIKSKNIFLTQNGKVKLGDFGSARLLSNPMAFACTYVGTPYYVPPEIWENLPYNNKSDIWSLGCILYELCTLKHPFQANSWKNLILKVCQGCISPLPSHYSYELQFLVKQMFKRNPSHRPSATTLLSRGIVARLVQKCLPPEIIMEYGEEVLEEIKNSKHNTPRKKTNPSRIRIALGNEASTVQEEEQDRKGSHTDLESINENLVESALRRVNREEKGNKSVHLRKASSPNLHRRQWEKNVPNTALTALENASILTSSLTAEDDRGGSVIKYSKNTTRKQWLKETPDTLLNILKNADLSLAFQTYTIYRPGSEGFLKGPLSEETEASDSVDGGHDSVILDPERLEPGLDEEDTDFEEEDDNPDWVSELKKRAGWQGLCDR
Put plainly: Selectivity interaction (Upstate Kinase Profiler service (Millipore)) EUB0000056c NEK3. Conditions: at 1 µM.

In test [4] the target is Fibroblast growth factor receptor 4 (Homo sapiens, UniProt P22455). The test can be described thus: Selectivity interaction (KinomeScan (DiscoverX)) EUB0000655a FGFR4. Conditions: at 10 µM.
In test [5] the target is T3, Serine/threonine-protein kinase tousled-like 1 (Homo sapiens) (UniProt Q9UKI8).
T3 sequence (whole entry): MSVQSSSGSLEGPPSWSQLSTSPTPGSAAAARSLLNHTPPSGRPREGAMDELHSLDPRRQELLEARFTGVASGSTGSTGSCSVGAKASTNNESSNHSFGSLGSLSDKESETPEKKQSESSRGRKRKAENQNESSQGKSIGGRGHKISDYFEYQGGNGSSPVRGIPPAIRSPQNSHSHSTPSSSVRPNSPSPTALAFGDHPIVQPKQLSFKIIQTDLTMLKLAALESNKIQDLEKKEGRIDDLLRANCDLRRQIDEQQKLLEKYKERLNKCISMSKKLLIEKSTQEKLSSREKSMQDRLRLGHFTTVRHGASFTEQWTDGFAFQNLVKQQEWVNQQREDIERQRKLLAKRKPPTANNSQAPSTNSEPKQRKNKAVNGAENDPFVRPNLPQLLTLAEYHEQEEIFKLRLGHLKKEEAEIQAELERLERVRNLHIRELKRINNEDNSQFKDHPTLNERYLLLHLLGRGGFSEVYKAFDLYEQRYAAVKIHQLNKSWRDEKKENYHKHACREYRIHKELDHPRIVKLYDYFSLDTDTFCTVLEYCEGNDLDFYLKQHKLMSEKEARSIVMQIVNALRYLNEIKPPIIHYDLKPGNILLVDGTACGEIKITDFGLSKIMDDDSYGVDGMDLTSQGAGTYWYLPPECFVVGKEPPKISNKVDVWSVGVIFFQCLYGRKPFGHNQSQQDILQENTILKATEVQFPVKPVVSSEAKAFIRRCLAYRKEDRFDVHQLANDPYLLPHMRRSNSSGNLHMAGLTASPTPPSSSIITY
Put plainly: Selectivity interaction (KinomeScan (DiscoverX)) EUB0000092b TLK1. The note with it: at 10 µM.

Test [6] has as its target Myosin-IIIa (Homo sapiens) (UniProt Q8NEV4). Put plainly: Selectivity interaction (KinomeScan (DiscoverX)) EUB0001079a MYO3A. The note with it: at 1 µM.

Chain of Prostacyclin receptor (Homo sapiens) (P43119 whole entry): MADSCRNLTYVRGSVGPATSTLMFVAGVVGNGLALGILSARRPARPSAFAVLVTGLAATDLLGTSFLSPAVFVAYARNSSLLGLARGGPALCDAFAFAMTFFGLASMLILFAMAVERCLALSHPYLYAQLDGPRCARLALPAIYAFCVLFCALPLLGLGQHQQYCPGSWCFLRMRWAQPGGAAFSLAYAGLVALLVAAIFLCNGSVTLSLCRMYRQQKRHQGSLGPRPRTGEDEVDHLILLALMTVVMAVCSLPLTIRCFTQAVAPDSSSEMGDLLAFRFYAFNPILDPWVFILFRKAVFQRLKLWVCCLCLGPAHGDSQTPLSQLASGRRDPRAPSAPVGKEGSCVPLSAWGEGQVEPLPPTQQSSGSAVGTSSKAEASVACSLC
Chain of Fibroblast growth factor receptor 4 (P22455 22-802 limits assumed): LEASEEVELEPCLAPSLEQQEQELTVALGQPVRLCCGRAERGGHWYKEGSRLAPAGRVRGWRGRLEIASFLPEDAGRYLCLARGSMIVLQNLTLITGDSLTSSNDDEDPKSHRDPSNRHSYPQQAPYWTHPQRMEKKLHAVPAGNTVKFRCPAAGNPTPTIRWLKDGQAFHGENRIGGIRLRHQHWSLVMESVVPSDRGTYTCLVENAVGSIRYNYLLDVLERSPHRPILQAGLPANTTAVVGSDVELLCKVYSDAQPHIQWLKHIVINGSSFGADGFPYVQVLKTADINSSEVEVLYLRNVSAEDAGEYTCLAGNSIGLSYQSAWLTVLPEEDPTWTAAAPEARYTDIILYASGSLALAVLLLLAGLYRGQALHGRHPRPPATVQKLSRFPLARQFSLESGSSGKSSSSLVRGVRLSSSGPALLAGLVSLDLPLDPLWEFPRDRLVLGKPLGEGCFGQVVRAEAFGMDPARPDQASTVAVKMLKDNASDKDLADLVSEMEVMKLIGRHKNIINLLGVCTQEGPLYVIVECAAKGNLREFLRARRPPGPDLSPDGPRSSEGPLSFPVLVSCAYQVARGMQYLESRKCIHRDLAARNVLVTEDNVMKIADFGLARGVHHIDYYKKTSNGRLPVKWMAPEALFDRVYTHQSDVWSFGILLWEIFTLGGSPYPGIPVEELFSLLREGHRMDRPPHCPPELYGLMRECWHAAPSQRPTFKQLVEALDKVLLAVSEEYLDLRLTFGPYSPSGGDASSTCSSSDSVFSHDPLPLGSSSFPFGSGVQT
Chain of Myosin-IIIa (Homo sapiens) (Q8NEV4 whole entry): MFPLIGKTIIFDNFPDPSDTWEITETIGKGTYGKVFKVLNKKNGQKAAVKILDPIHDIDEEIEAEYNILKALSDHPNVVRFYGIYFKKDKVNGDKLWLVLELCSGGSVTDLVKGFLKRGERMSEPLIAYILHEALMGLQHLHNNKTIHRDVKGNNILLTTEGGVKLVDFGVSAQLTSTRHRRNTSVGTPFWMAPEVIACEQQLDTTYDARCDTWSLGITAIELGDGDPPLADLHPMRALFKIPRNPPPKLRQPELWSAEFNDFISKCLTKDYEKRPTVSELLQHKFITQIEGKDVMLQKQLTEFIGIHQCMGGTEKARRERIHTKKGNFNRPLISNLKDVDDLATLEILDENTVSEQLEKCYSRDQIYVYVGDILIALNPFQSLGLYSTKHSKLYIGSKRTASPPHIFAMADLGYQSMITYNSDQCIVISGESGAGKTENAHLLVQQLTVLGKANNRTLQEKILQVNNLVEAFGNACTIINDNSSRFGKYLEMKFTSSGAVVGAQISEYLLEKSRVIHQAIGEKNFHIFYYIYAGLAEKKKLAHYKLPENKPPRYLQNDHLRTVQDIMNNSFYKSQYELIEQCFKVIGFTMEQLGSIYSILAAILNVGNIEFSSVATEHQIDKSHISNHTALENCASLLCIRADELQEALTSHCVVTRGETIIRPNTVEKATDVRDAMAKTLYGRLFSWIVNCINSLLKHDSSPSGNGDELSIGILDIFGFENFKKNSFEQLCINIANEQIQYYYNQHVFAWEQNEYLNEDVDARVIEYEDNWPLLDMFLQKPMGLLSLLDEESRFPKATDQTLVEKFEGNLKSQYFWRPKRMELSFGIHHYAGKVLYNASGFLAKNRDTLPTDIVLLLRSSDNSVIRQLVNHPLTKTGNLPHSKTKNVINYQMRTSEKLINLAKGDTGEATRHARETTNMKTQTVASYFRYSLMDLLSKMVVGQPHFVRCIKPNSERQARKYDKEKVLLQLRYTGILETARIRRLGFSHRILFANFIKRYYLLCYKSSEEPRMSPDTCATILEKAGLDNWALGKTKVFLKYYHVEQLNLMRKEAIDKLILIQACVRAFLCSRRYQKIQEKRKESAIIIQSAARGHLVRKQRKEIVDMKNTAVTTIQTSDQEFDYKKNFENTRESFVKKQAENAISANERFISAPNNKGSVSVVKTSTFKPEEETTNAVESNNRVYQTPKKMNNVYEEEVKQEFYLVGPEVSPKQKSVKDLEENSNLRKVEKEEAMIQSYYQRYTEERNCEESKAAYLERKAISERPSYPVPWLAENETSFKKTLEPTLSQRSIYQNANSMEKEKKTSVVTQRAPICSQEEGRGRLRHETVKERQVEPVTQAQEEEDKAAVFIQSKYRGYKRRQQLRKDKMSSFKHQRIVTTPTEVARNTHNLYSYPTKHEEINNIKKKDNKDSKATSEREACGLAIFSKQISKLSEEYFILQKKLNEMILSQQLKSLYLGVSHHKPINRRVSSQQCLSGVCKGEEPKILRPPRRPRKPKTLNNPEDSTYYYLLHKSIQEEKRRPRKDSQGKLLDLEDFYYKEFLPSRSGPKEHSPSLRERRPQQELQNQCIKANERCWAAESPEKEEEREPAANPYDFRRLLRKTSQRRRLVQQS

On to `CC(=O)c1cc(-c2ccccc2OCC2CC2)c2ncccn12`, for which the % of control in test [1] amounted to 108%.
In turn, `Cc1cc([C@@H](C)Nc2ccccc2C(=O)O)c2nc(N3CCOCC3)cc(=O)n2c1` [AZD-6482] registered a % of control in test [2] of 96%.
`Cc1ccc(-c2ccc3c(ccc4sc5c(c43)NC[C@@H](C)NC5=O)n2)cn1` displayed a % of inhibition in test [3] of 6%.
In test [4], `CN(C)CCOc1ccc(-c2nc(-c3ccncc3)c(-c3ccc4c(c3)CC/C4=N\O)[nH]2)cc1` showed a % of control of 100%.
In turn, `CCC(=O)N1CCN(c2ccc(-n3c(=O)ccc4cnc5ccc(-c6cnc7ccccc7c6)cc5c43)cc2C(F)(F)F)CC1` yielded a % of control in test [5] of 100%.
On to `Nc1cnc(N2CCc3cc(S(=O)(=O)Nc4c(F)cc(Cl)cc4F)cc(N4CCCC4=O)c32)nc1` [TP-020n], for which the % of control in test [6] amounted to 77%.
